From patent US20070148448A1, “Microencapsulated delivery vehicles including cooling agents” (Kimberly-Clark Worldwide, Inc., priority 2005, published 2007)

System: Methicillin-resistant Staphylococcus aureus
Details: 0.005% (by weight) active PHMB
Method: This Example utilized 1.5-milliliter tubes containing a 1-milliliter blend of phosphate-buffered saline (pH 7.2) and 5% (w/v) bovine serum albumin soil. The tubes were placed in electric heat blocks set for 22° C., 30° C., 40° C. and 50° C., respectively. The tubes remained in the electric heat blocks for approximately 10 minutes.
Duplicate tubes without PHMB at each temperature were also made.
All of the tubes were then placed back into the heat blocks at their respective temperatures. […] The letheen samples were then plated in duplicate on Tryptic Soy agar plates using a WASP2 spiral plater (commercially available from Don Whitley Scientific, Ltd., Yorkshire, United Kingdom).
After 48 hours, the plates were evaluated using a total plate count to determine the biocidal efficacy of each sample.

polyhexamethylene biguanide [PHMB]
difference in efficacy between 22° C. and 50° C.: greater than 1.4 LOG,o
